In one series the test system is HBV-DNA. Kind of series: HBV DNA content in HepG2.2.15 cells culture supernatant by real time-qPCR. The format is cell-based. Particulars: supernatant on the 8th day. As to the method:
2.1 Cell Line: HepG2.2.15 Cells
3.6 15 μL of the reaction mixture was added into each well of a 96-well PCR plate, followed by addition of 10 μL of sample DNA or HBV DNA standards into each well.
3.7 PCR reaction conditions: heating at 95° C. for 10 minutes, then denaturation at 95° C. for 15 seconds, extension at 60° C. for 1 minute, a total of 40 cycles.
For orientation: In qPCR the cycle at which signal appears reflects the starting amount.

Series [1] can be described thus: Microsomal metabolism stability, mouse. Format: in vitro ADME. The settings on record: mouse liver microsomes 0.5 mg/mL, 1 μM, NADPH, 37° C. The protocol:
The microsomal metabolism stability of the test compound (Embodiment 6) in three species was determined. 1 μM test compound and microsomes (0.5 mg/mL) supplemented with NADPH regeneration system were incubated at 37° C. The positive controls were testosterone (3A4 substrate), propafenone (2D6 substrate) and diclofenac (2C9 substrate), respectively. The positive control and microsomes (0.5 mg/mL) supplemented with NADPH regeneration system were incubated at 37° C. Samples at different time points (0, 5, 10, 20, 30, and 60 minutes) were mixed directly with cold acetonitrile containing an internal standard to terminate the reaction. The compound and microsomes were incubated for 60 minutes without the NADPH regeneration system. One parallel was set at each time point (n=1). The samples were analyzed by LC/MS/MS. The concentration of the compound was indicated by the ratio of the peak area of the analyte to the peak area of the internal standard.
(Microsomes from liver hold many membrane-bound enzymes, among them those of drug oxidation.)

On to `COCCCOc1cc2c(cc1OC)-c1cc(=O)c(C(=O)O)cn1[C@H](C(C)(C)C)CO2` [Embodiment 6], for which the EC50 (commonly the midpoint of the concentration-response curve) with HBV-DNA was found to be 2.55 nM. The “remaining ratio at T=60 min” value in series [1] was determined as 102.5%.
